From PubChem BioAssay (NCI)
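Step 1: Grow cells in 96-well plates. Step 2: Expose to compound for 48 hours at 5 concentrations. Step 3: Interpolate endpoints linearly; if unreached, use highest concentration. TGI: concentration producing complete growth inhibition.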

Tests used:
Assay in all cases: NCI anticancer screen, dose series, 48 h
[1] = system: SK-OV-3 ovarian
[2] = system: SNB-75 CNS
[3] = system: SW-620 colon
[4] = system: OVCAR-4 ovarian
[5] = system: IGROV1 ovarian
[6] = system: RPMI-8226 leukemia
[7] = system: 786-0 renal
[8] = system: HCT-15 colon
[9] = system: MOLT-4 leukemia
[10] = system: NCI-H226 lung
[11] = system: HT29 colon
[12] = system: HL-60(TB) leukemia
[13] = system: SK-MEL-28 melanoma
[14] = system: COLO 205 colon
[15] = system: KM12 colon
[16] = system: PC-3 prostate
[17] = system: UACC-62 melanoma
[18] = system: TK-10 renal
[19] = system: SF-295 CNS

`COC(=O)C1=C(OC(=O)/C(=C/c2ccccc2)c2ccc(Cl)cc2Cl)C(C(=O)OC)[C@@]2(O)[C@@H](C(=O)OC)[C@H](C)C[C@@H]1[C@@H]2C(=O)OC` (some centres not stated) showed a TGI [1] of over 100 µM, a TGI [2] of over 100 µM and a TGI [3] of over 100 µM. For the same molecule, the TGI [4] was over 100 µM, the TGI [5] was over 100 µM and the TGI [6] was over 100 µM. It also gave a TGI [7] of over 100 µM, a TGI [8] of over 100 µM and a TGI [9] of over 100 µM. For the same molecule, the TGI [10] was over 100 µM, the TGI [11] was over 100 µM and the TGI [12] was over 100 µM. For the same molecule, the TGI [13] was over 100 µM, the TGI [14] was over 100 µM and the TGI [15] was over 100 µM. It also gave a TGI [16] of over 100 µM, a TGI [17] of over 100 µM and a TGI [18] of over 100 µM. It also gave a TGI [19] of over 100 µM.

In the case of `COc1ccc2nc(N/N=C/c3sccc3C)cc(C)c2c1`, the TGI [1] is reported as 32.1 µM, the TGI [2] is reported as 37.1 µM and the TGI [3] is reported as 65 µM. For the same molecule, the TGI [4] was 99.5 µM, the TGI [5] was 32.4 µM and the TGI [6] was 45.3 µM. The TGI [7] was 27.6 µM, the TGI [8] was 30.5 µM and the TGI [9] was 50.7 µM. It also gave a TGI [10] of 42.6 µM, a TGI [11] of 24 µM and a TGI [12] of 47.6 µM. For the same molecule, the TGI [13] was 50.5 µM, the TGI [14] was 32.7 µM and the TGI [15] was 38.3 µM. For the same molecule, the TGI [16] was 38.7 µM, the TGI [17] was 27.1 µM and the TGI [18] was 28.1 µM. For the same molecule, the TGI [19] was 21.7 µM.

`CS(=O)(=O)C(C#N)c1nc2ccccc2nc1Cl` (configuration not stated) was tested, and the TGI [1] was over 100 µM, the TGI [2] was over 100 µM and the TGI [3] was over 100 µM. For the same molecule, the TGI [4] was over 100 µM, the TGI [5] was over 100 µM and the TGI [6] was over 100 µM. It also gave a TGI [7] of over 100 µM, a TGI [8] of over 100 µM and a TGI [9] of over 100 µM. It also gave a TGI [10] of over 100 µM, a TGI [11] of over 100 µM and a TGI [12] of over 100 µM. The TGI [13] was over 100 µM, the TGI [14] was over 100 µM and the TGI [15] was over 58.2 µM. The TGI [16] was over 100 µM, the TGI [17] was over 100 µM and the TGI [18] was over 66.5 µM. It also gave a TGI [19] of over 100 µM.

With `COC(=O)c1csc([C@@H](OC(=O)[C@H](C)[C@H](CCCC(C)(Cl)Cl)OC(=O)c2csc([C@H](O)CO)n2)C(C)C)n1` the TGI [1] was 29.7 µM, the TGI [2] was 11 µM and the TGI [3] was 32.6 µM. The TGI [4] was 24.5 µM, the TGI [5] was 24.1 µM and the TGI [6] was 34.1 µM. For the same molecule, the TGI [7] was 28.3 µM, the TGI [8] was 31 µM and the TGI [9] was 32.2 µM. It also gave a TGI [10] of 39.7 µM, a TGI [11] of 36.8 µM and a TGI [12] of 35.1 µM. For the same molecule, the TGI [13] was 24.2 µM, the TGI [14] was 32.3 µM and the TGI [15] was 29.4 µM. For the same molecule, the TGI [16] was 26.7 µM, the TGI [17] was 24.3 µM and the TGI [18] was 24.9 µM. The TGI [19] was 29.1 µM.

`N#CSCC(Cl)=CCl` (mixture of isomers) was tested, and the TGI [1] was over 100 µM, the TGI [2] was over 100 µM and the TGI [3] was over 100 µM. It also gave a TGI [4] of over 100 µM, a TGI [5] of over 100 µM and a TGI [6] of over 100 µM. For the same molecule, the TGI [7] was over 100 µM, the TGI [8] was over 100 µM and the TGI [9] was 97.5 µM. The TGI [10] was over 100 µM, the TGI [11] was over 100 µM and the TGI [12] was over 100 µM. It also gave a TGI [13] of over 100 µM, a TGI [14] of over 100 µM and a TGI [15] of over 100 µM. For the same molecule, the TGI [16] was over 100 µM, the TGI [17] was over 100 µM and the TGI [18] was over 100 µM. It also gave a TGI [19] of over 100 µM.

Work on `Cc1ccc(-n2[nH]nc(C(N)=O)c2=O)cc1` yielded a TGI [1] of over 100 µM, a TGI [2] of over 100 µM and a TGI [3] of over 100 µM. It also gave a TGI [4] of over 100 µM, a TGI [5] of over 100 µM and a TGI [6] of over 100 µM. For the same molecule, the TGI [7] was over 100 µM, the TGI [8] was over 100 µM and the TGI [9] was over 100 µM. It also gave a TGI [10] of over 100 µM, a TGI [11] of over 100 µM and a TGI [12] of over 100 µM. The TGI [13] was over 100 µM, the TGI [14] was over 100 µM and the TGI [15] was over 100 µM. The TGI [16] was over 100 µM, the TGI [17] was over 100 µM and the TGI [18] was over 100 µM. For the same molecule, the TGI [19] was over 100 µM.

Work on `Cc1nc2ccc(Br)cc2c(=O)n1-c1nnc(C(C)(C)C)s1` yielded a TGI [1] of over 10 µM, a TGI [2] of over 10 µM and a TGI [3] of over 10 µM. It also gave a TGI [4] of over 10 µM, a TGI [5] of over 10 µM and a TGI [6] of over 10 µM. The TGI [7] was over 10 µM, the TGI [8] was over 10 µM and the TGI [9] was over 10 µM. For the same molecule, the TGI [10] was over 10 µM, the TGI [11] was over 10 µM and the TGI [12] was over 10 µM. It also gave a TGI [13] of over 10 µM, a TGI [14] of over 10 µM and a TGI [15] of over 10 µM. It also gave a TGI [16] of over 10 µM, a TGI [17] of over 10 µM and a TGI [18] of over 10 µM. For the same molecule, the TGI [19] was over 10 µM.

In the case of `COC(=O)[C@@H]1C=C[C@H](OC2OC(COC(C)=O)C(OC(C)=O)C(OC(C)=O)C2OC(C)=O)n2c(=O)n(-c3ccccc3)c(=O)n21` (some centres not stated), the TGI [1] is reported as 29.4 µM, the TGI [2] is reported as 13 µM and the TGI [3] is reported as 3.41 µM. It also gave a TGI [4] of 3.22 µM, a TGI [5] of 12 µM and a TGI [6] of 6.05 µM. For the same molecule, the TGI [7] was 2.83 µM, the TGI [8] was 3.85 µM and the TGI [9] was 5.19 µM. The TGI [10] was 40.4 µM, the TGI [11] was 3.64 µM and the TGI [12] was 4.39 µM. For the same molecule, the TGI [13] was 5.59 µM, the TGI [14] was 3.38 µM and the TGI [15] was 19.6 µM. It also gave a TGI [16] of 7.67 µM, a TGI [17] of 8.89 µM and a TGI [18] of 3.74 µM. The TGI [19] was 15.5 µM.
